Source: patent US20240391926A1, “SPIROINDOLINONE COMPOUNDS AS Kv1.3 POTASSIUM SHAKER CHANNEL BLOCKERS” (D.E. Shaw Research, LLC, priority 2021, published 2024)

Experiments:
[1] = target: T1, Kv1.3 potassium channel (Homo sapiens, UniProt P22001); test: Kv1.3 potassium channel blocker activity, automated whole-cell patch clamp (Patchliner) in CHO-K1 cells stably expressing Kv1.3; format: cell-based; conditions: 30 nM-100 μM
T1 construct: expressed in transfected cells
How it was run: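 Whole-cell automated patch clamp in CHO-K1 cells, pH 7.4 external/7.2 internal; 100 ms steps from −90 to +40 mV at 0.1 Hz, 20-pulse trains. Cumulative 30 nM–100 μM on one cell, ≤10 s per concentration; last-pulse current normalized to control, IC50 from Hill fit.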

[2] = target: T2, hERG channel (Homo sapiens, UniProt Q12809); test: hERG electrophysiology, automated whole-cell patch clamp (Patchliner) in CHO-K1 cells stably expressing hERG; format: cell-based; conditions: 30 nM-100 μM
T2 construct: expressed in transfected cells
Description: This assay is used to evaluate the disclosed compounds' inhibition activities against the hERG channel.
CHO-K1 cells stably expressing hERG were grown in Ham's F-12 Medium with glutamine containing 10% heat-inactivated FBS, 1% penicillin/streptomycin, hygromycin (100 μg/ml) and G418 (100 μg/ml). Cells were grown in culture flasks at 37° C. in a 5% CO2-humidified incubator.
The cells were bathed in an extracellular solution containing 140 mM NaCl, 4 mM KCl, 2 mM CaCl2), 1 mM MgCl2, 5 mM Glucose, 10 mM HEPES; pH adjusted to 7.4 with NaOH; 295-305 mOsm. The internal solution contained 50 mM KCl, 10 mM NaCl, 60 mM KF, 20 mM EGTA, 10 mM HEPES; pH adjusted to 7.2 with KOH; 285 mOsm. All compounds were dissolved in DMSO at 30 mM. Compound stock solutions were freshly diluted with external solution to concentrations of 30 nM, 100 nM, 300 nM, 1 μM, 3 μM, 10 μM, 30 μM and 100 μM. The highest content of DMSO (0.3%) was present in 100 μM.
The voltage protocol (see Table B) was designed to simulate voltage changes during a cardiac action potential with a 300 ms depolarization to +20 mV (analogous to the plateau phase of the cardiac action potential), a repolarization for 300 ms to −50 mV (inducing a tail current) and a final step to the holding potential of −80 mV. The pulse frequency was 0.3 Hz. Control (compound-free) and compound pulse trains for each compound concentration applied contained 70 pulses.
Whole-cell current recordings and compound application were enabled by means of an automated patch clamp platform Patchliner (Nanion). EPC 10 patch clamp amplifier (HEKA) along with Patchmaster software (HEKA Elektronik Dr. Schulze GmbH) was used for data acquisition. Data were sampled at 10 kHz without filtering. Increasing compound concentrations were applied consecutively to the same cell without washouts in between.
AUC and PEAK values were obtained with Patchmaster (HEKA Elektronik Dr. Schulze GmbH). To determine IC50 the last single pulse in the pulse train corresponding to a given compound concentration was used. Obtained AUC and PEAK values in the presence of compound were normalized to control values in the absence of compound. Using Origin (OridinLab), IC50 was derived from data fit to Hill equation: Icompound/Icontrol=(100−A)/(1+([compound]/IC50)nH)+A, where IC50 is the concentration at which current inhibition is half-maximal, [compound] is the applied compound concentration, A is the fraction of current that is not blocked and nH is the Hill coefficient.

T1 sequence (P22001 whole entry): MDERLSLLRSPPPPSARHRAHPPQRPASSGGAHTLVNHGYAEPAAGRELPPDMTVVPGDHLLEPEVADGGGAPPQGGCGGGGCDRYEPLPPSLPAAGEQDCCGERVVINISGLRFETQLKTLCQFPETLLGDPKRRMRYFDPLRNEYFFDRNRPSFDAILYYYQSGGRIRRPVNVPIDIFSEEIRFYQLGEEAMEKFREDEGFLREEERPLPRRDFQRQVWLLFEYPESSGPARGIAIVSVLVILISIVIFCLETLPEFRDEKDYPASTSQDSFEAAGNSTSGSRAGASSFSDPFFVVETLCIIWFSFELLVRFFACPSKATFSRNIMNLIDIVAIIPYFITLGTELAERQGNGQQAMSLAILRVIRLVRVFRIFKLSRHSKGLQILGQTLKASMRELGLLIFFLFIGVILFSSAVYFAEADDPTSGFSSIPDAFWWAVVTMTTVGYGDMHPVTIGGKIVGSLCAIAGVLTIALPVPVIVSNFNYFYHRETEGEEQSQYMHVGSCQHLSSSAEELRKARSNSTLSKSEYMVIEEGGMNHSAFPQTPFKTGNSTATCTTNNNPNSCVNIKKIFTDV
T2 sequence (Q12809 whole entry): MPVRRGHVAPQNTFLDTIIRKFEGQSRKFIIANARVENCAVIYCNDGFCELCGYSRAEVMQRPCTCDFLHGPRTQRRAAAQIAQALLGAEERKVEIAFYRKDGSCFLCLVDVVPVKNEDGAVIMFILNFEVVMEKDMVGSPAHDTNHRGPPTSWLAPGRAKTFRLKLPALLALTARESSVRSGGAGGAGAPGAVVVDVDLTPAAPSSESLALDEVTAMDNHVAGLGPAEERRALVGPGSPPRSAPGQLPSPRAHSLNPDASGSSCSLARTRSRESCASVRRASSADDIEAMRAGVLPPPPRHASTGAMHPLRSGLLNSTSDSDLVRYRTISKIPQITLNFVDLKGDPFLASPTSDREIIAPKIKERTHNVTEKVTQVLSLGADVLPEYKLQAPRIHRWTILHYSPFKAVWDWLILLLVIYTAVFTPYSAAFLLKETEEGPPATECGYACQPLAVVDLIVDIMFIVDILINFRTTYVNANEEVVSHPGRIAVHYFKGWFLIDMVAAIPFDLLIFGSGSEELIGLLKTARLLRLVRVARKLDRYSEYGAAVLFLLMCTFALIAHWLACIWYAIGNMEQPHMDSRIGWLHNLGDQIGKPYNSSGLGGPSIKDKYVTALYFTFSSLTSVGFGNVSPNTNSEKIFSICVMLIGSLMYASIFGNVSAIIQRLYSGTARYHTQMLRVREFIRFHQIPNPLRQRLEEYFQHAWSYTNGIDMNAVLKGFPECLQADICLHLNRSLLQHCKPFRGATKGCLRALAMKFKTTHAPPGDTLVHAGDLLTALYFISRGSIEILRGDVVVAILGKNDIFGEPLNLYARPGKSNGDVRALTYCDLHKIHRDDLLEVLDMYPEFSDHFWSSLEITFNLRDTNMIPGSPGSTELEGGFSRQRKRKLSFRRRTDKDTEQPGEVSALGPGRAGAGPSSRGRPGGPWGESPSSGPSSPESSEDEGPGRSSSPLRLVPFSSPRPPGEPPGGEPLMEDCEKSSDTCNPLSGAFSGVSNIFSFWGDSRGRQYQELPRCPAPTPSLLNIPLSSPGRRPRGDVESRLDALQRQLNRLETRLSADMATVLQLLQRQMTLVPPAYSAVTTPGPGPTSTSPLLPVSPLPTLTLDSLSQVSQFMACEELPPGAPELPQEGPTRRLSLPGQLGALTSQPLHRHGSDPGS

Row | SMILES | IC50 [1] [µM] | IC50 [2] [µM]
1 | Nc1cc(C(=O)N2CC[C@]3(C2)C(=O)Nc2cc(Cl)c(Cl)cc23)ccn1 [Compound 42, (S)-1′-(2-aminoisonicotinoyl)-5,6-dichlorospiro[indoline-3,3′-pyrrolidin]-2-one] | < 0.3 | > 10
2 | O=C(CCCO)N1CC[C@]2(C1)C(=O)Nc1cc(Cl)c(Cl)cc12 [Compound 56, (S)-5,6-dichloro-1′-(4-hydroxybutanoyl)spiro[indoline-3,3′-pyrrolidin]-2-one] | < 3 | > 100
3 | O=C(C[C@@H]1CCNC1)N1CC[C@]2(C1)C(=O)Nc1cc(Cl)c(Cl)cc12 [Compound 60, (S)-5,6-dichloro-1′-(2-((S)-pyrrolidin-3-yl)acetyl)spiro[indoline-3,3′-pyrrolidin]-2-one] | < 0.3 | > 100
4 | O=C(C[C@H]1CCNC1)N1CC[C@]2(C1)C(=O)Nc1cc(Cl)c(Cl)cc12 [Compound 62, (S)-5,6-dichloro-1′-(2-((R)-pyrrolidin-3-yl)acetyl)spiro[indoline-3,3′-pyrrolidin]-2-one] | < 0.3 | > 100
5 | O=C(c1ccnc(CO)c1)N1CC[C@]2(C1)C(=O)Nc1cc(Cl)c(Cl)cc12 [Compound 67, (S)-5,6-dichloro-1′-(2-(hydroxymethyl)isonicotinoyl)spiro[indoline-3,3′-pyrrolidin]-2-one] | < 1 | > 100
6 | O=C1Nc2cc(Cl)c(Cl)cc2[C@]12CCN(C(=O)[C@H]1C[C@](O)(CO)C1)C2 [Compound 93, (3S)-5,6-dichloro-1′-[(1r,3r)-3-hydroxy-3-(hydroxymethyl)cyclobutanecarbonyl]-1H-spiro[indole-3,3′-pyrrolidin]-2-one] | < 1 | > 100
7 | O=C([C@@H]1C[C@@H](O)[C@@H](O)C1)N1CC[C@]2(C1)C(=O)Nc1cc(Cl)c(Cl)cc12 [Compound 101, (3S)-5,6-dichloro-1′-[(1S,3R,4S)-3,4-dihydroxycyclopentanecarbonyl]-1H-spiro[indole-3,3′-pyrrolidin]-2-one] | < 0.3 | > 100
8 | O=C([C@@H]1CN[C@H](CO)C1)N1CC[C@]2(C1)C(=O)Nc1cc(Cl)c(Cl)cc12 [Compound 113, (3S)-5,6-dichloro-1-[(3S,53)-5-(hydroxymethyl)pyrrolidine-3-carbonyl]-1H-spiro[indole-3,3-pyrrolidin]-2-one] | < 0.1 | > 100
9 | O=C([C@@H]1CN[C@@H](CO)C1)N1CC[C@]2(C1)C(=O)Nc1cc(Cl)c(Cl)cc12 [Compound 115, (S)-5,6-dichloro-1′-((3S,5R)-5-(hydroxymethyl)pyrrolidine-3-carbonyl)spiro[indoline-3,3′-pyrrolidin]-2-one] | < 0.1 | > 100
10 | O=C([C@H]1CN[C@@H](CO)C1)N1CC[C@]2(C1)C(=O)Nc1cc(Cl)c(Cl)cc12 [Compound 116, (S)-5,6-dichloro-1′-((3R,5R)-5-(hydroxymethyl)pyrrolidine-3-carbonyl)spiro[indoline-3,3′-pyrrolidin]-2-one] | < 0.1 | > 100
11 | O=C(CO)N1CC[C@]2(C1)C(=O)Nc1c2cc(Cl)c(Cl)c1Cl [Compound 121, (3S)-5,6,7-trichloro-1′-(2-hydroxyacetyl)-1H-spiro[indole-3,3′-pyrrolidin]-2-one] | < 0.3 | > 10
12 | Cc1c(Cl)c(Cl)cc2c1NC(=O)[C@@]21CCN(C(=O)CO)C1 [Compound 129, (3S)-5,6-dichloro-1′-(2-hydroxyacetyl)-7-methyl-1H-spiro[indole-3,3′-pyrrolidin]-2-one] | < 0.3 | > 100

Second part, led by results:

Row | IC50 [1] [µM] | SMILES | IC50 [2] [µM]
13 | < 1 | O=C(c1cn[nH]c1)N1CC[C@]2(C1)C(=O)Nc1cc(Cl)c(Cl)cc12 [Compound 35, (S)-5,6-dichloro-1′-(1H-pyrazole-4-carbonyl)spiro[indoline-3,3′-pyrrolidin]-2-one] | > 100
14 | < 0.3 | O=C(N1CC[C@]2(C1)C(=O)Nc1cc(Cl)c(Cl)cc12)[C@]1(F)CCCNC1 [Compound 49, (S)-5,6-dichloro-1′-((S)-3-fluoropiperidine-3-carbonyl)spiro[indoline-3,3′-pyrrolidin]-2-one] | > 3
15 | < 1 | O=C1Nc2cc(Cl)c(Cl)cc2[C@]12CCN(C(=O)[C@H]1CC[C@H](O)CC1)C2 [Compound 52, (S)-5,6-dichloro-1′-((1r,4S)-4-hydroxycyclohexane-1-carbonyl)Spiro[indoline-3,3′-pyrrolidin]-2-one] | > 30
16 | < 3 | O=C(c1cc[nH]n1)N1CC[C@]2(C1)C(=O)Nc1cc(Cl)c(Cl)cc12 [Compound 53, (S)-5,6-dichloro-1′-(1H-pyrazole-3-carbonyl)spiro[indoline-3,3′-pyrrolidin]-2-one] | > 10
17 | < 1 | Cc1[nH]ncc1C(=O)N1CC[C@]2(C1)C(=O)Nc1cc(Cl)c(Cl)cc12 [Compound 71, (S)-5,6-dichloro-1′-(5-methyl-1H-pyrazol-4-carbonyl)spiro[indoline-3,3′-pyrrolidin]-2-one] | > 30
18 | < 1 | O=C1Nc2cc(Cl)c(Cl)cc2[C@]12CCN(C(=O)[C@H]1C[C@@](O)(CO)C1)C2 [Compound 94, (3S)-5,6-dichloro-1′-[(1s,3s)-3-hydroxy-3-(hydroxymethyl)cyclobutanecarbonyl]-1H-spiro[indole-3,3′-pyrrolidin]-2-one] | > 100
19 | < 1 | O=C([C@H]1C[C@@H](O)[C@@H](O)C1)N1CC[C@]2(C1)C(=O)Nc1cc(Cl)c(Cl)cc12 [Compound 102, (3S)-5,6-dichloro-1′-[(1R,3R,43)-3,4-dihydroxycyclopentanecarbonyl]-1H-spiro[indole-3,3′-pyrrolidin]-2-one] | > 100
20 | < 1 | COC[C@@H]1C[C@H](C(=O)N2CC[C@]3(C2)C(=O)Nc2cc(Cl)c(Cl)cc23)CN1 [Compound 109, (3S)-5,6-dichloro-1′-[(3S,5S)-5-(methoxymethyl)pyrrolidine-3-carbonyl]-1H-spiro[indole-3,3′-pyrrolidin]-2-one] | > 30
21 | < 0.3 | COC[C@H]1C[C@H](C(=O)N2CC[C@]3(C2)C(=O)Nc2cc(Cl)c(Cl)cc23)CN1 [Compound 112, (S)-5,6-dichloro-1′-((3S,5R)-5-(methoxymethyl)pyrrolidine-3-carbonyl)spiro[indoline-3,3′-pyrrolidin]-2-one] | > 100
22 | < 0.3 | O=C([C@H]1CN[C@H](CO)C1)N1CC[C@]2(C1)C(=O)Nc1cc(Cl)c(Cl)cc12 [Compound 114, (3S)-5,6-dichloro-1′-[(3R,5S)-5-(hydroxymethyl)pyrrolidine-3-carbonyl]-1H-spiro[indole-3,3′-pyrrolidin]-2-one] | > 100
23 | < 3 | Cc1cc2c(cc1Cl)[C@]1(CCN(C(=O)CO)C1)C(=O)N2 [Compound 120, (S)-5-chloro-1′-(2-hydroxyacetyl)-6-methylspiro[indoline-3,3′-pyrrolidin]-2-one] | > 100
24 | < 0.3 | O=C(CO)N1CC[C@]2(C1)C(=O)Nc1c2cc(Cl)c(Cl)c1F [Compound 128, (S)-5,6-dichloro-7-fluoro-1′-(2-hydroxyacetyl)spiro[indoline-3,3′-pyrrolidin]-2-one] | > 100
